Measurements published in patent publication US8097650B2, “Method of treating a condition associated with phosphorylation of TASK-1” (The Trustees of Columbia University In The City of New York, priority 2005, dated 2012).

Experiments:
[1] = test system: mouse ventricular myocytes; assay: Repolarization abnormalities in mouse ventricular myocytes paced at 1 Hz with PKCε peptides; type: cell-based; details: peptide in pipette, no added C-PAF
Method: Mouse ventricular myocytes were isolated using a retrograde coronary perfusion method previously published (Kuznetsov V et al. (1995) Circ Res 76: 40-52). All the experiments were carried out according to the guidelines issued by the IACUC of Columbia University. Adult mice 2 or 3 months old, were anaesthetized with a xylazine and ketamine mix and heparinized, the heart was quickly removed and the ascending aorta was connected to the outlet of a Langendorff column and perfused with 20-25 ml of a buffer solution (37° C.) containing (mM):NaCl, 112; KCl, 5.4; NaHCO3, 4.2; MgCl2, 1.6; HEPES, 20; glucose, 5.4; NaH2PO4, 1.7; taurine, 10; L-glutamine, 4.1; MEM amino acids solution, 2%; MEM vitamin solution, 1%; adjusted to pH 7.4, and equilibrated with 100% O2. Next, the heart was perfused with an enzyme solution containing collagenase (0.2 mg/ml; Worthington Type II) and trypsin (0.04 mg/ml) at 35° C. for 10-12 min. After this perfusion, the atria were removed and the ventricles minced and transferred to a 50 ml flask with an enzyme solution containing collagenase (0.45 mg/ml), trypsin (0.08 mg/ml), Ca^2+ (0.75 mM) and bovine serum albumin (BSA; 4.8 mg/ml). The flask was shaken vigorously for 5-10 min at 32° C. before the supernatant was removed and the cells were collected by centrifugation, this operation was repeated two or three times and additional disaggregated cells were collected. After centrifugation, the myocytes were resuspended in the buffer solution containing Ca^2+ (0.75 mM) and BSA and stored at room temperature until use. Rod-shaped, Ca^2+-tolerant myocytes, obtained with this procedure, were used within 6 h of dissociation. Measurements were performed only on quiescent myocytes with clear striations
(§1) The myocyte suspension or the coverslip with CHO cells was placed into a perfusion chamber, mounted on the stage of an inverted microscope. Unless otherwise indicated, CHO cells were superfused at room temperature with standard external Tyrode's buffer, containing (mM): NaCl, 140; KCl, 5.4; CaCl2, 1; MgCl2, 1; HEPES, 5; glucose, 10; adjusted to pH 7.4. Recordings were begun after the current reached a stable baseline (usually 3 to 4 min after initial cell rupture). In myocytes, TASK-1 current is small and exists in the presence of numerous larger K^+ currents. In order to increase the inward component of TASK-1 current and to block other potassium currents in myocytes, a modified high K^+ external solution (modified Tyrode's) was used to reduce outward rectification of TASK-1 current. The composition of this solution-was (in mM): NaCl, 100; KCl, 50; CaCl2, 1; MgCl2, 1; HEPES, 5; glucose, 10; tetraethylammonium (TEA), 1; CsCl, 5; adjusted to pH 7.4. Membrane potential and current were measured in the whole cell configuration using borosilicate glass pipettes with a tip resistance between […] and filled with a pipette solution containing (mM): aspartic acid, 130; KOH, 146; NaCl, 10; CaCl2, 2; EGTA, 5; HEPES, 10; MGATP, 2; pH 7.2. The stock solutions of C-PAF and of the PKC inhibitor, bisindolylmaleimide (BIM-I; Calbiochem), were prepared in water and diluted to the final concentrations in Tyrode's or modified Tyrode's, as appropriate. The PKC activator, PMA, was prepared in DMSO and then diluted in Tyrode's. […] Myocytes treated with the peptides were monitored continuously beginning immediately after rupture to detect the occurrence of any arrhythmias during dialysis of the peptide. Application of C-PAF to cells treated with the inhibitor peptide was started after the peptide had been permitted to dialyse into the cell (8-10 min after rupture for CHO or 10-12 min after rupture for myocytes).
The current and the voltage protocols were generated using Clampex 8.0 software applied by means of an Axopatch 200-B and a Digidata 1200 interface (Axon Instruments). In current clamp mode, for recording action potentials, the signals were filtered at 1 KHz (low pass Bessel filter) and acquired at a sampling rate of 5 KHz. […]

[2] = biological target: T1, TASK-1 (Mus musculus, UniProt O35111); assay: C-PAF-sensitive steady-state current in murine ventricular myocytes (voltage clamp); type: cell-based
T1 construct: endogenous in cells; host or cells: adult mouse ventricular myocytes (C57/B16 background; WT or PAFR KO)
Method: Adult mice, 2-3 months old, were anesthetized with ketamine/xylazine and their hearts were removed according to protocols approved by the Columbia University-IACUC. Experiments were performed on single rod-shaped, quiescent ventricular myocytes dissociated using a standard retrograde collagenase perfusion (Kuznetsov V et al. (1995) Circ Res 76: 40-52) from hearts of mice that were either wild-type (WT), or PAFR knockouts (KO). Both WT and KO mice were bred on a C57/B16 background. The derivation of the KO mice has been described previously (Hoffman, B F et al.(1996) J Cardiovasc Electrophysiol 7:120-133).
Prior to electrophysiological measurements, cells were placed into the perfusion chamber and superfused at room temperature with Tyrode's buffer (in mM: NaCl, 140; KCl, 5.4; CaCl2 1; MgCl2, Hepes, 5; Glucose, 10; pH 7.4). The whole-cell patch clamp technique was used with pipettes having resistances of 1.5-3 MΩ (intracellular solution, in mM: aspartic acid, 130; KOH, 146; NaCl, 10; CaCl2, 2; EGTA, 5; Hepes, 10; MgATP, 2; pH 7.2). Solutions of C-PAF, the PAFR antagonist, CV-6209 (Biomol) and the PKC inhibitor, bisindolylmaleimide I (BIM I; Calbiochem) were prepared in water and diluted in Tyrode's before use. […] A custom-made fast perfusion device was used to exchange the solution around the cell within 1 s (DiFrancesco et al. (1986) J Physiol 377: 61-88).
Current and voltage protocols were generated using Clampex 7.0 software applied by means of an Axopatch 200B amplifier and a Digidata 1200 interface (Axon Instruments). During voltage clamp, steady state current traces were acquired at 500 Hz and final filtered at 10 Hz. During current clamp, membrane voltage was acquired at 5 KHz and filtered at 1 KHz. Ramp clamps were conducted by imposing a voltage ramp (14 mV/s) at a 500 Hz acquisition rate with 1 kHz filtering. Data were analyzed using pCLAMP 8.0 (Axon) and Origin 6.0 (Microcal) and are presented as mean±SEM. Steady-state current was determined by computer calculation of average current over a time period of at least 5 s. In all experiments, the n value indicates the number of myocytes studied, and represents pooled data from at least 2 (voltage clamp) or 3 (current clamp) animals. Student's t-test, one-way ANOVA and χ^2 tests were used; a value of p<0.05 was considered statistically significant. Records have been corrected for the junction potential, which was measured to be 9.8 mV.

[3] = biological target: T2, TREK-1 (Homo sapiens, UniProt O95069); assay: Human TREK-1 current in CHO cells (ramp clamp); type: cell-based; design: expressed in transfected cells; host or cells: CHO cells; details: for type of activation of human TREK-1 current: +50 mV, riluzole 100 nM, anisomycin 3.7 μM, CDC 10 μM, tyrphostins 10 μM
T2 sequence (O95069 1-426): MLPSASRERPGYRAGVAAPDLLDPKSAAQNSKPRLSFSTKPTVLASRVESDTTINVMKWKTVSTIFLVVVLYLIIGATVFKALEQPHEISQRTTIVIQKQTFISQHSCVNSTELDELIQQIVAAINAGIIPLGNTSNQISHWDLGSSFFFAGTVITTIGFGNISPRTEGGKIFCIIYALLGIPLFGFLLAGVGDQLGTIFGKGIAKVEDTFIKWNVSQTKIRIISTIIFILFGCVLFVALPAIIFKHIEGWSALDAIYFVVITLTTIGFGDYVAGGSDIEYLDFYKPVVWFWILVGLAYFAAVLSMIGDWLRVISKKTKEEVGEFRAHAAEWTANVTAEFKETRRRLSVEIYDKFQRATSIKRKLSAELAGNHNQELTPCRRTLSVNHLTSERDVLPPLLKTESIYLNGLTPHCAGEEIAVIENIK
Method: FIG. 18. Structure-activity analysis of activators of human TREK-1 channel. Human TREK-1 was expressed in CHO cells and current was measured during a ramp protocol (−120 to +50 mV in 6 s). The activation of the current at +50 mV in the presence of various putative TREK-1 activators was measured and summarized in the bar graph as % activation over basal. Various endogenous lipids, most related to lipoxygenase metabolites of either arachidonic acid or linoleic acid, were tested (all at 100 nM).
FIG. 21. CHO cells (hTREK-1, hTASK-1) or HEK cells (mTRAAK) were co-transfected with plasmids encoding one of the two pore domain channels and GFP using the GeneJammer reagent. After 48-60 h, the expressed current was measured using a ramp protocol while the cells were perfused with regular Tyrode's solution containing varying concentrations of ONO-RS-082 (range of concentration from 10 nM to 500 μM as noted in FIG. 21) until a steady state was reached. Each cell was exposed to only one concentration of drug. Panel A: TREK-1 current was determined using a ramp clamp, and the percent increase induced by ONO-RS-082 was measured at the most positive imposed voltage (n≧5). The EC50 for activation was around 3 μM and the basal and ONO-activated current densities are noted. Panel B: TASK-1 current was determined using a ramp clamp in Tyrode's solution at pH=8 and the percent increase induced by ONO-RS-082 was measured at the most positive imposed voltage (n≧4). The EC50 was around 8 μM and the basal and ONO-activated current densities are noted. Panel C: TRAAK current was determined using a ramp clamp, and the percent increase induced by ONO-RS-082 was measured at the most positive imposed voltage (n≧4). The EC50 was around 0.9 μM and the basal and ONO-activated current densities are noted.
Subsequently, the structure-activity analysis of activators of human TREK-1 channel was determined. […] The activation of the current at +50 mV in the presence of various putative TREK-1 activators was measured and summarized in the bar graph as % activation over basal.
CHO cells were transfected with a plasmid encoding human TREK-1 and the current was studied by patch clamp. The current-voltage relation was determined using a ramp protocol that went from −130 mV to +40 mV in 6 s (after correction for the junction potential). […] This is typical of 7 cells.

[4] = test system: murine TASK-1; assay: TASK-1 current expressed in CHO cells (whole-cell ramp clamp); type: cell-based, mouse; details: αPMA 100 nM
Method: The TASK-1 clone (provided by Professor Y. Kurachi, Osaka University) was co-transfected in CHO cells with CD8 plasmid using Lipofectamine Plus (Invitrogen) according to the manufacturer's instructions. 48 h later cells were transferred to the electrophysiology chamber and anti-CD8 coated beads (Dynal Biotech) were added to identify CD8 expressing cells. Expressing cells were voltage clamped using a ramp clamp (see below). CHO cells were used in these experiments, in part, because they express endogenous PAFR.
Chinese hamster ovary cells (CHO) were grown in F-12 medium supplemented with 10% fetal bovine serum. Twenty-four hours prior to transfection, cells were seeded into 6 well plates at 80-90% of confluence. Transfections were carried out with the GeneJammer transfection reagent (Stratagene) according to the manufacturer's instructions. Briefly, cells were washed with PBS and their medium replaced with supplemented F-12 medium (900 μl/well). For each well, GeneJammer (6 μl) was incubated with Opti-MEM (90 μl) followed by the addition of DNA (1 μg). This mixture was then added to the wells and 3 h later an additional 2 ml of supplemented F-12 medium was added. After incubating overnight, the cells were washed and their medium replaced.
Cells were either co-transfected with pCMV-TASK1 together with pEGFP-C1 (1 μg total, 3:1) or transfected with […] or T381A-pTIE (1 μg). 48 h after the transfection the cells were checked under the microscope for green fluorescence. Approximately 20% of the cells were positive for EGFP and these were then used for patch-clamp experiments. Due to the culture-to-culture variability in the expression of TASK-1 current, most comparisons were made on matched controls from the same transfection. Summary results were then obtained by pooling data from several different culture preparations.
as §1
The current and the voltage protocols were generated using Clampex 8.0 software applied by means of an Axopatch 200-B and a Digidata 1200 interface (Axon Instruments). […]

[5] = held at −10 mV, C-PAF 185 nM, Ba2+ 3 mM, Zn2+ 3 mM, lipids and ATFK 10 μM

T1 sequence (O35111 whole entry): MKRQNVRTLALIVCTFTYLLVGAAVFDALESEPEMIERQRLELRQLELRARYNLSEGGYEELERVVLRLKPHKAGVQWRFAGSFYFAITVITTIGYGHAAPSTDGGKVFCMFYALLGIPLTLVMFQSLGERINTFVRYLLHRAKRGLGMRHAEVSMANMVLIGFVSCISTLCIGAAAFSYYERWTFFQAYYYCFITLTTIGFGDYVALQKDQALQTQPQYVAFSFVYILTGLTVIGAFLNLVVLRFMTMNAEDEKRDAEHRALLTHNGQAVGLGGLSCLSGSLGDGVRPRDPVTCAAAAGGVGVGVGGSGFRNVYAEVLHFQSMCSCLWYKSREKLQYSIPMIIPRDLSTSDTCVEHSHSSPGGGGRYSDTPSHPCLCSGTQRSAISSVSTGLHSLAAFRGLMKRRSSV

In the case of HDAPIGYD [activator peptide], the “cells with repolarization abnormalities / abnormal automaticity” value [1] is reported as 8 of 9.
In the case of [Cs+] [Cs^+], the “effect on C-PAF-sensitive current” value ([2]; Cs+ 5 mM, −70 mV) is reported as “did not reduce”.
With Nc1nc2ccc(OC(F)(F)F)cc2s1 [riluzole] the “type of activation of human TREK-1 current” value [3] was “slow-onset activators”.
Cc1ccc(Cl)c(Nc2ccccc2C(=O)O)c1Cl [meclofenamate, Meclofenamic acid] was tested, and the “TREK-1 current in the presence of drug” value ([3]; ramp −130 to +40 mV, typical of 7 cells) was “Current was greater”.
In the case of CCCCC/C=C\C/C=C\C/C=C\C/C=C\CCCC(=O)C(F)(F)F [ATFK, arachidonyltrifluoromethyl ketone], the “effect on C-PAF-sensitive current” value [2, 5] is reported as “no effect”.
With CN1C(=O)C(c2c[nH]c3ccccc23)=C(c2c[nH]c3ccccc23)C1=O [BIM V] the “effect of PKC inhibitor or inactive analogue on C-PAF-sensitive current” value ([2]; BIM I 40 and 100 nM, BIM V, −10 mV) was “not altered”.
In the case of CCCCCCCCCCCCCCCCCCNC(=O)OCC(COC(=O)N(Cc1cccc[n+]1CC)C(C)=O)OC (stereo not shown) [CV-6209], the “effect of PAFR antagonist on C-PAF-sensitive current” value ([2]; CV-6209 100 nM, WT myocytes) is reported as “blocked”.
With CCCCCCCCCCCCCC(=O)O[C@@H]1[C@@H](C)[C@@]2(O)[C@@H](C=C(CO)C[C@@]3(O)C(=O)C(C)=C[C@@H]23)[C@@H]2C(C)(C)[C@]12OC(C)=O [αPMA, 4α-phorbol 12-myristate 13-acetate] the “effect on TASK-1 current” value [4] was “no detectable effect”.
[Ba+2] [Ba^2+] was tested, and the “effect on C-PAF-sensitive current” value [2, 5] was “significantly reduced”.
COc1ccc(C[C@H]2NC[C@H](O)[C@H]2OC(C)=O)cc1 [anisomycin] was tested, and the “type of activation of human TREK-1 current” value [3] was “slow-onset activators”.
With CCCCC/C=C\C/C=C\C/C=C\C/C=C\CCCC(=O)NCCO [anandamide] the “effect on C-PAF-sensitive current” value ([2]; anandamide 10 μM in the presence of ATFK 10 μM, −10 mV) was “significantly reduced” and the “effect on C-PAF-sensitive current” value [2, 5] was “did not significantly inhibit”.
With [Zn+2] [Zn^2+] the “effect on C-PAF-sensitive current” value [2, 5] was “significantly reduced”.
